Source: US5494914A, “Inhibitors for testosterone 5α-reductase activity” (Endorecherche, priority 1994, dated 1996)
pKi: −log10 of the molar value.

Assays:
[1] = biological target: T1, 5α-reductase (Homo sapiens, UniProt P18405); assay: 5α-reductase inhibition in DU 145 cells (conversion of tritiated 4-androstenedione); type: cell-based
T1 construct: host or cells: DU 145 (human prostate carcinoma)
T1 sequence (P18405 1-259): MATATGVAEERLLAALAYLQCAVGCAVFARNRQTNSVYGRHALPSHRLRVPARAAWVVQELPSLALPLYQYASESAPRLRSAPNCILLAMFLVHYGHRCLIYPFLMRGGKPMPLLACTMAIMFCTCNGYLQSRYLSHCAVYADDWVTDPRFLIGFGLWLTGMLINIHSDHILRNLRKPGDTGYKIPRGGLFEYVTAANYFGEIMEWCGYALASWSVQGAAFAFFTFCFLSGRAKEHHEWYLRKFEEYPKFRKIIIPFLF
Experimental: Except where otherwise indicated, 5α-reductase inhibition is measured by the following method. Plates having 24 dishes per unit are used. Into each dish were placed 100,000 cells from the human carcinoma metastatic prostatic cell line DU 145 (ATCC #HTB 81) in MEM medium containing 2% dextran charcoal-treated calf serum, 1% penicillin, 1% streptomycin and 1% non essential amino acids. After 24 h, the medium was removed and replaced by 2.5 ml of MEM medium containing 2% dextran charcoal-treated calf serum, 10 nM of tritiated […] and 1% of ethanol. Each dish had different concentrations of the 5α-reductase inhibitor being tested. The cells were incubated for 24 h at 37° C. under an atmosphere of 5% CO2 saturated with water. The extracellular medium was then removed, centrifuged at 1000 RPM for 10 min., and decanted in test tubes. To these test tubes was added 100 μl of ethanol containing 25 μg of androstanedione, 25 μg of 4-androstenedione, 25 μg of dihydrotestosterone and 25 μg of testosterone. The steroids were then extracted from the mixture by two extractions with 2 ml of diethyl ether. Phase separation was achieved by freezing of the aqueous phase. The organic phase was then evaporated, thus leaving asteroid residue which was dissolved in a few drops of methylene chloride and spotted on TLC plates (Whatman WH 4420222). After developing twice with a mixture of benzene-acetone (9:1), the spots were visualized by U.V. and gaseous iodine, cut, put into separate vials for each steroid and extracted for 15 min with 1 ml of ethanol. After addition of 10 ml of scintillation cocktail (NEN 989), the vials were shaked and counted.
The 5α-reductase activity is the sum of the transformation of 4-androstenedione to androstanedione and of the transformation of testosterone to dihydrotestosterone.

[2] = tested on: prostate; conditions: men; Imperato-McGinley et al. 1989; cited from earlier work
[3] = tested on: intraprostatic DHT; conditions: men; Imperato-McGinley et al. 1989; cited from earlier work
[4] = tested on: type II 5α-reductase; conditions: Andersson et al. 1991; cited from earlier work
[5] = tested on: type I 5α-reductase; conditions: Andersson et al. 1991; cited from earlier work
[6] = tested on: rat prostate; conditions: in vitro and in vivo; Brooks et al. 1981; cited from earlier work
[7] = tested on: ventral prostate; conditions: rat; Brooks et al. 1981; cited from earlier work
[8] = tested on: 5α-reductase; conditions: Liang et al. 1981; cited from earlier work

| SMILES | pKi [1] | also measured |
| --- | --- | --- |
| CCCCN(C=O)[C@H]1CC[C@H]2[C@@H]3CC[C@H]4N(C)C(=O)CC[C@]4(C)[C@H]3CC[C@]12C [EM 347, 17β-(N-n-butyl-N-formamido)-4-methyl-4-aza-5α-androstan-3-one] | 8.59 | – |
| CC(C)CN(C=O)[C@H]1CC[C@H]2[C@@H]3CC[C@H]4N(C)C(=O)CC[C@]4(C)[C@H]3CC[C@]12C [EM 422, 17β-(N-iso-Butyl-N-formamido)-4-methyl-4-aza-5-androstan-3-one] | 8.14 | – |
| CCCCN(C(C)=O)[C@H]1CC[C@H]2[C@@H]3CC[C@H]4N(C)C(=O)CC[C@]4(C)[C@H]3CC[C@]12C [EM 424, 17β-(N-n-butyl-N-acetamido)-4-methyl-4-aza-5α-androstan-3-one] | 7.93 | – |
| CN(C(=O)Nc1ccccc1)[C@H]1CC[C@H]2[C@@H]3CC[C@H]4N(C)C(=O)CC[C@]4(C)[C@H]3CC[C@]12C [EM 408, 17βN-(1N-methyl-2N-phenylurea)-4-methyl-4-aza-5α-androstan-3-one] | 8.09 | – |
| CNC(=O)N(C1CC1)[C@H]1CC[C@H]2[C@@H]3CC[C@H]4N(C)C(=O)CC[C@]4(C)[C@H]3CC[C@]12C [EM 373, 17β-N-(1N-cyclopropyl-2N-methylurea)-4-methyl-4-aza-5α-androstan-3-one] | 9.30 | – |
| CCC(CC)N(C=O)[C@H]1CC[C@H]2[C@@H]3CC[C@H]4N(C)C(=O)CC[C@]4(C)[C@H]3CC[C@]12C [EM 407, 17β-(N-1-Ethylpropyl-N-formamido)-4-methyl-4-aza-5α-androstan-3-one] | 7.97 | – |
| CC(C)(C)NC(=O)[C@H]1CC[C@H]2[C@@H]3CC[C@H]4NC(=O)C=C[C@]4(C)[C@H]3CC[C@]12C [MK-906] | – | reduction in prostatic size [2]: 25-30%; intraprostatic concentration of DHT [3]: reduction in the intraprostatic concentration of DHT; inhibition of the type II enzyme [4]: potent inhibitor of the type II enzyme; inhibition of the type I enzyme [5]: weak inhibitor of the type I enzyme |
| CCNC(=O)N(C1CC1)[C@H]1CC[C@H]2[C@@H]3CC[C@H]4N(C)C(=O)CC[C@]4(C)[C@H]3CC[C@]12C [EM 392, 17βN-(1N-cyclopropyl-2N-ethylurea)-4-methyl-4-aza-5α-androstan-3-one] | 7.87 | – |
| CCCCCCN(C=O)[C@H]1CC[C@H]2[C@@H]3CC[C@H]4N(C)C(=O)CC[C@]4(C)[C@H]3CC[C@]12C [EM 402, 17β-(N-n-Hexyl-N-formamido)-4-methyl-4-aza-5α-androstan-3-one] | 8.14 | – |
| CN1C(=O)CC[C@]2(C)[C@H]3CC[C@]4(C)[C@@H](N(C=O)C5CCCCC5)CC[C@H]4[C@@H]3CC[C@@H]12 [EM 337, 17β-(N-Cyclohexyl-N-formamido)-4-methyl-4-aza-5α-androstan-3-one] | 7.92 | – |
| CCN(CC)C(=O)[C@H]1CC[C@H]2[C@@H]3CC[C@H]4N(C)C(=O)CC[C@]4(C)[C@H]3CC[C@]12C [4-MA, N,N-diethyl-4-methyl-3-oxo-4-aza-5α-androstane-17β-carboxamide] | – | inhibiting the formation of DHT from testosterone in rat prostate [6]: useful in inhibiting the formation of DHT from testosterone in rat prostate in vitro and in vivo; testosterone-induced increase in ventral prostate weight [7]: reducing the testosterone-induced increase in ventral prostate weight; 5α-reductase inhibition type [8]: reversible inhibitor of 5α-reductase |
| CC(C)CCN(C=O)[C@H]1CC[C@H]2[C@@H]3CC[C@H]4N(C)C(=O)CC[C@]4(C)[C@H]3CC[C@]12C [EM 405, 17β-(N-iso-Amyl-N-formamido)-4-methyl-4-aza-5α-androstan-3-one] | 8.66 | – |
| CCCN(C=O)[C@H]1CC[C@H]2[C@@H]3CC[C@H]4N(C)C(=O)CC[C@]4(C)[C@H]3CC[C@]12C [EM 423, 17β-(N-n-propyl-N-formamido)-4-methyl-4-aza-5α-androstan-3-one] | 8.29 | – |

Further compounds by rising pKi [1], results first:

| pKi [1] | SMILES | also measured |
| --- | --- | --- |
| 7.54 | CN(C=O)[C@H]1CC[C@H]2[C@@H]3CC[C@H]4N(C)C(=O)CC[C@]4(C)[C@H]3CC[C@]12C [EM 316, 17β-(N-methyl-N-formamido)-4-methyl-4-aza-5α-androstan-3-one] | – |
| 7.85 | CC(C)NC(=O)N(C1CC1)[C@H]1CC[C@H]2[C@@H]3CC[C@H]4N(C)C(=O)CC[C@]4(C)[C@H]3CC[C@]12C [EM 396] | – |
| 7.95 | CN1C(=O)CC[C@]2(C)[C@H]3CC[C@]4(C)[C@@H](N(C=O)C5CC5)CC[C@H]4[C@@H]3CC[C@@H]12 [EM 336, 17β-(N-Cyclopropyl-N-formamido)-4-methyl-4-aza-5α-androstan-3-one] | – |
| 8.15 | CCCNC(=O)N(C1CC1)[C@H]1CC[C@H]2[C@@H]3CC[C@H]4N(C)C(=O)CC[C@]4(C)[C@H]3CC[C@]12C [EM 390] | – |
| 8.25 | CN1C(=O)CC[C@]2(C)[C@H]3CC[C@]4(C)[C@@H](N(C=O)Cc5ccccc5)CC[C@H]4[C@@H]3CC[C@@H]12 [EM 436, 17β-(N-Benzyl-N-formamido)-4-methyl-4-aza-5α-androstan-3-one] | – |
| 8.48 | CCCCNC(=O)N(C1CC1)[C@H]1CC[C@H]2[C@@H]3CC[C@H]4N(C)C(=O)CC[C@]4(C)[C@H]3CC[C@]12C [EM 394] | – |
| 8.49 | CN1C(=O)CC[C@]2(C)[C@H]3CC[C@]4(C)[C@@H](N(C(=O)NC5CCCCC5)C5CC5)CC[C@H]4[C@@H]3CC[C@@H]12 [EM 397] | – |
| 8.64 | CN1C(=O)CC[C@]2(C)[C@H]3CC[C@]4(C)[C@@H](N(C(=O)Nc5ccccc5)C5CC5)CC[C@H]4[C@@H]3CC[C@@H]12 [EM 374, 17β-N-(1N-cyclopropyl-2N-phenylurea)-4-methyl-4-aza-5α-androstan-3-one] | – |
| 8.74 | CCCCCN(C=O)[C@H]1CC[C@H]2[C@@H]3CC[C@H]4N(C)C(=O)CC[C@]4(C)[C@H]3CC[C@]12C [EM 401, 17β(N-n-Amyl-N-formamido)-4-methyl-4-aza-5α-androstan-3-one] | – |
